Experiments:
C57BL/6 mice = test: Haloperidol-induced catalepsy model (bar grip test); type: in vivo; settings: mouse, PO, haloperidol 3 mg/kg PO, step down latency
Description: To evaluate the potential beneficial effects to motor defects present in schizophrenics treated with typical and atypical antipsychotic agents and in Parkinson's disease patients, the compounds of the invention may be tested in a reversal of catalepsy model in which motor freezing, or catalepsy, is induced by potent dopamine D2 receptor antagonists such as haloperidol or risperidone. The method uses the “bar grip test”, in which the front paws of the mouse are placed so as to grip a 3 mm-diameter, suspended wooden bar. A “step down latency” is measured by recording the time until the mouse removes its paws from the wooden bar to the floor surface. […]
A total of seventeen (17) eight week-old, male, C57BL/6 mice (Jackson Laboratories) are used in a typical experiment testing the effect of the compound of Example 1 or 2. […] A catalepsy score is recorded for each mouse at 2, 3, 4 and 6 hours after administration of drugs. […] The latency until the mouse steps both paws down from the bar to the floor surface (i.e., step down latency) is recorded up to 120 sec. […] If none of the 10 attempts are beyond 10 sec, the longest duration recorded is used as the catalepsy score. Otherwise, the initial cataleptic duration (>10 sec) is recorded during the 120 sec testing time. Mean step down latency is calculated for each treatment group. […]

[1] = molecular target: recombinant full length human PDE1B (r-hPDE1B) (Homo sapiens (Human), UniProt Q01064); test: IMAP phosphodiesterase assay, r-hPDE1B; type: biochemical; settings: IMAP fluorescence polarization, FL-GMP substrate
Description: (§1) Phosphodiesterase 1B (PDE1B) is a calcium/calmodulin dependent phosphodiesterase enzyme that converts cyclic guanosine monophosphate (cGMP) to 5′-guanosine monophosphate (5′-GMP). PDE1B can also convert a modified cGMP substrate, such as the fluorescent molecule cGMP-fluorescein, to the corresponding GMP-fluorescein. The generation of GMP-fluorescein from cGMP-fluorescein can be quantitated, using, for example, the IMAP (Molecular Devices, Sunnyvale, Calif.) immobilized-metal affinity particle reagent.
(§2) Briefly, the IMAP reagent binds with high affinity to the free 5′-phosphate that is found in GMP-fluorescein and not in cGMP-fluorescein. The resulting GMP-fluorescein—IMAP complex is large relative to cGMP-fluorescein. Small fluorophores that are bound up in a large, slowly tumbling, complex can be distinguished from unbound fluorophores, because the photons emitted as they fluoresce retain the same polarity as the photons used to excite the fluorescence.
(§3) In the phosphodiesterase assay, cGMP-fluorescein, which cannot be bound to IMAP, and therefore retains little fluorescence polarization, is converted to GMP-fluorescein, which, when bound to IMAP, yields a large increase in fluorescence polarization (Δmp) Inhibition of phosphodiesterase, therefore, is detected as a decrease in Δmp.
Materials: All chemicals are available from Sigma-Aldrich (St. Louis, Mo.) except for IMAP reagents (reaction buffer, binding buffer, FL-GMP and IMAP beads), which are available from Molecular Devices (Sunnyvale, Calif.). […]
(§4) The FL-GMP conversion reaction is initiated by combining 4 parts enzyme and inhibitor mix with 1 part substrate solution (0.225 μM) in a 384-well microtiter plate. […] The plate is incubated at room temperature for 1 hour to allow IMAP binding to proceed to completion, and then placed in an Envision multimode microplate reader (PerkinElmer, Shelton, Conn.) to measure the fluorescence polarization (Δmp).
(§5) A decrease in GMP concentration, measured as decreased Δmp, is indicative of inhibition of PDE activity.

rats = test: Novel Object Recognition (NOR) assay; type: in vivo; settings: rat, 0.3 mg/Kg PO, dosed 2 hours before T1, p<0.01
Description: To measure the cognition-enhancing effects of the compounds of the invention, the candidate compounds may be evaluated in a Novel Object Recognition (NOR) assay. This assay protocol is described in detail in Ennaceur et al., Behav. Brain Res. (1988) 31:47-59 and Prickaerts et al., Eur. J. Pharmacol. (1997) 337:125-136, the contents of each of which are incorporated by reference in their entirety. In this protocol, the rats are introduced to a chamber at time T1 and allowed to interrogate two identical “familiar objects” for six minutes. Twenty four hours later, they are re-introduced to this chamber, where one of the familiar objects has been replaced with a novel object. The “discrimination index”, a measure of the time spent in close proximity to the novel over the familiar object, may then be measured. Since rodents will forget the original experience at T1 within 4 hours, this test with a 24 h interval is a measure of strong cognitive enhancement.
This assay protocol can be modified in order to evaluate different phases of memory. There are three general phases of memory, namely, acquisition, consolidation and retrieval. In this modified protocol, the rats may be dosed with the candidate compound two hours before T1 and tested 24 h later, without additional dosing. This is a test of the acquisition process. […]

[2] = molecular target: recombinant full length human PDE1A (r-hPDE1A) (Homo sapiens (Human), UniProt P54750); test: IMAP phosphodiesterase assay, r-hPDE1A; type: biochemical; settings: IMAP fluorescence polarization, FL-GMP substrate
Description: as §1, §2, §3
Materials: All chemicals are available from Sigma-Aldrich (St. Louis, Mo.) except for IMAP reagents (reaction buffer, binding buffer, FL-GMP and IMAP beads), which are available from Molecular Devices (Sunnyvale, Calif.).
Assay: The following phosphodiesterase enzymes may be used: 3′,5′-cyclic-nucleotide-specific bovine brain phosphodiesterase (Sigma, St. Louis, Mo.) (predominantly PDE1B) and recombinant full length human PDE1A and PDE1B (r-hPDE1A and r-hPDE1B respectively) which may be produced e.g., in HEK or SF9 cells by one skilled in the art. The PDE1 enzyme is reconstituted with 50% glycerol to 2.5 U/ml. One unit of enzyme will hydrolyze 1.0 μmole of 3′,5′-cAMP to 5′-AMP per min at pH 7.5 at 30° C. One part enzyme is added to 1999 parts reaction buffer (30 μM CaCl2, 10 U/ml of calmodulin (Sigma P2277), 10 mM Tris-HCl pH 7.2, 10 mM MgCl2, 0.1% BSA, 0.05% NaN3) to yield a final concentration of 1.25 mU/ml. […]
as §4, §5

IC50 [1]	IC50 [2]	SMILES	minimal dose active in catalepsy model (C57BL/6 mice)	activity versus vehicle in Novel Object Recognition (rats)
11000 nM	2.7 nM	CCSc1c2c(nn1Cc1ccc(-c3ccc(F)cn3)cc1)N1CC(C)(C)N=C1N(C)C2=O [Example 1, 3-(ethylthio)-2-(4-(5-fluoropyridin-2-yl)benzyl)-5,7,7-trimethyl-7,8-dihydro-2H-imidazo[1,2-a]pyrazolo[4,3-e]pyrimidin-4(5H)-one]	< 0.1 mg/kg	active versus vehicle
4000 nM	1 nM	CCSc1c2c(nn1Cc1ccc(-c3cccc(F)n3)cc1)N1CC(C)(C)N=C1N(C)C2=O [Example 2, 3-(ethylthio)-2-(4-(6-fluoropyridin-2-yl)benzyl)-5,7,7-trimethyl-7,8-dihydro-2H-imidazo[1,2-a]pyrazolo[4,3-e]pyrimidin-4(5H)-one]	< 0.1 mg/kg	–
27000 nM	1.5 nM	CCSc1c2c(nn1Cc1ccc(-c3cccc(F)n3)cc1)N1C(=N[C@@H]3CCC[C@@H]31)N(C)C2=O [Example 3-A, (6aR,9aS)-5,6a,7,8,9,9a-hexahydro-5-methyl-3-(ethylthio)-2-(4-(6-fluoropyridin-2-yl)benzyl)-cyclopent[4,5]imidazo[1,2-a]pyrazolo[4,3-e]pyrimidin-4(2H)-one]	–	–
–	6 nM	CC(C)Sc1c2c(nn1Cc1ccc(-c3cccc(F)n3)cc1)N1C(=N[C@@H]3CCC[C@@H]31)N(C)C2=O [Example 3-B, (6aR,9aS)-5,6a,7,8,9,9a-hexahydro-5-methyl-3-(isopropylthio)-2-(4-(6-fluoropyridin-2-yl)benzyl)-cyclopent[4,5]imidazo[1,2-a]pyrazolo[4,3-e]pyrimidin-4(2H)-one]	–	–

Source: patent US10561656B2, “Organic compounds” (INTRA-CELLULAR THERAPIES, INC., priority 2011, dated 2020)
